# Test results as given in patent US6407288B1, “Naphthylsalicylanilides as antimicrobial and antiinflammatory agents” (The Research Foundation of State University of New York, priority 2000, dated 2002).
# What was measured:
# P. acnes 11828 = assay: MIC microdilution, gram positive; format: cell-based, Propionibacterium acnes; conditions: Cutibacterium acnes, 11828; Table 1, Gram Positive
# In short: (§1)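 Modified NCCLS broth microdilution: aerobes in full-strength BHI, anaerobes in half-strength BHI with yeast extract, hemin and menadione, each well given 10 µL of a ~1×10^8 CFU/mL inoculum. Drugs ranged 50–0.05 µg/assay, run in duplicate, incubated 24–48 h, anaerobically under 5% CO2/10% H2/N2 where needed. MIC was the lowest concentration with no visible growth.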
# P. acnes 6922 = assay: MIC microdilution, gram positive; format: cell-based, Propionibacterium acnes; conditions: Cutibacterium acnes, 6922; Table 1, Gram Positive
# In short: as §1
# S. aureus = assay: MIC microdilution, gram positive; format: cell-based, Staphlococcus aureus; conditions: for MIC: Staphylococcus aureus
# In short: (§2)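 Broth microdilution (modified NCCLS M7-A4): BHI for aerobes, supplemented half-strength BHI under 5% CO2/10% H2/N2 for anaerobes; 10 μL of ~1×10^8 CFU/mL inoculum; drugs 50 to 0.05 μg/assay from DMSO stock. Duplicates incubated 24–48 h; MIC = lowest concentration without visible growth. Staphylococcus R: coagulase-negative clinical isolate 00-045-1209.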
# P. ging 381 = assay: MIC microdilution, gram negative; format: cell-based, Porphyromonas gingivalis; conditions: for MIC: Porphyromonas gingivalis, 381, Table 3, Gram Negative; for MIC P. ging 381: Table 3 printed a second time, Gram Negative
# In short: (§3)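 Modified NCCLS broth microdilution; anaerobes grown 48-72 hrs in half-strength BHI with yeast extract, hemin and menadione, aerobes in full-strength BHI, inoculum ~1×10^8 CFU/mL (10 μL/assay). Drugs from DMSO stock, final 50 to 0.05 μg/assay, duplicate, 24 to 48 hrs (anaerobic: 5% CO2, 10% H2, N2); MIC = lowest concentration without visible growth.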
# Pg 53977 = assay: MIC microdilution, gram negative; format: cell-based, Porphyromonas gingivalis; conditions: for MIC: Porphyromonas gingivalis, 53977, Table 3, Gram Negative; for MIC Pg 53977: Table 3 printed a second time, Gram Negative
# In short: as §3
# B. fragilis = assay: MIC microdilution, gram negative; format: cell-based, Bacteroides fraglis; conditions: for MIC: Bacteroides fragilis, Table 3, Gram Negative; for MIC B. fragilis: Table 3 printed a second time, Gram Negative
# In short: as §3
# S. species R = assay: Staphylococcus MIC; format: cell-based, staphylococcus species R; conditions: for MIC: Staphylococcus, second Table 5 (Example 5), strain 00-045-1209
# In short: as §2
# S. aureus R2 = assay: Staphylococcus MIC; format: cell-based; conditions: second Table 5 (Example 5), strain 00-42-1066
# Procedure: The MIC's for the compounds were determined by a modified microdilution tube dilution method described in “Methods for Dilution Antimicrobial Susceptibility Tests for Bacteria that Grow Aerobically” (National Committee for Clinical Laboratory Standards Approved Standards, 1997, NCCLS document M7-A4). In general the modifications were made because of the unique growth requirements for the fastidious oral organisms and for those bacteria that require anaerobic conditions. Reference is also made to “Methods for Antimicrobial Susceptibility of Anaerobic Bacteria” (National Committee for Clinical Laboratory Standards Approved Standards, 1997, NCCLS document M11-A4).
# Briefly, the methods were as follows. Cultures were grown for 18-24hrs (aerobic bacteria) or 48-72 hrs (anaerobic bacteria) in the appropriate medium. For aerobic bacteria full strength brain heart infusion medium (BHI, Difco) was used. For anaerobic bacteria, half strength BHI (18.5 g/L) was supplemented by adding yeast extract (10 g/L), hemin (0.29 mL of a stock solution containing 0.1 g/200 mL dH2O) and menadione (15 mL of a stock solution containing 0.15 mL in 30 mL 95% EtOH) was used. Initial cultures were diluted to approximately 1×10^8 CFU/mL for use as an inoculum. Each assay received 10 μL of the inoculum. The drugs were prepared from a stock solution contained in dimethyl sulfoxide (DMSO) and diluted into the culture medium. Final concentrations of the drugs ranged from 50 to 0.05 μg/assay. The tests were run in duplicate and were incubated appropriately with regard to oxygen requirements for 24 to 48 hrs as required. Anaerobic incubation was an atmosphere of 5% CO2, 10% H2, with the balance N2. The lowest concentration of an antimicrobial agent at which no visible growth is noted was referred to as the MIC.
# The S.aureus R2 species is a strain 00-42-1066 from the Children's Hospital in Buffalo. It was isolated from a wound in an individual. It was […]. The sensitivity of this strain was tested agaisnt several known antibiotics.
SMILES,MIC (P. acnes 11828) [µg/mL],MIC (P. acnes 6922) [µg/mL],MIC (S. aureus; second Table 5 (Example 5)) [µg/mL],MIC (P. ging 381) [µg/mL],MIC P. ging 381 (P. ging 381) [micrograms/ml],MIC (Pg 53977) [µg/mL],MIC Pg 53977 (Pg 53977) [micrograms/ml],MIC (B. fragilis) [µg/mL],MIC B. fragilis (B. fragilis),MIC (S. species R) [µg/mL],MIC (S. aureus R2) [µg/mL],"MIC (S. aureus; Table 2, Gram Positive) [µg/mL]",sensitivity of staphylococcus species R to the compounds (S. species R; statement in text referring to Table 5),MIC S. aureus (S. aureus; second Table 5 (Example 5))
"N#Cc1cccc(NC(=O)c2cc(C(=O)c3ccc(-c4ccccc4)cc3)ccc2O)c1 [BPAmC, reference compound]",12.5,0.2,–,< 0.4,<0.4,< 0.4,<0.4,50,50 micrograms/ml,> 50,> 50,> 50,–,NE (NE indicates that the drug was not effective at a concentration >50 micrograms/ml)
N#Cc1cccc(NC(=O)c2cc(C(=O)c3cccc4ccccc34)ccc2O)c1 [NA1mC],6.3,6.3,12.5,0.4,0.4,0.8,0.8,> 50,NE (NE indicates that the drug was not effective at a concentration >50 micrograms/ml),25,6.3,–,–,–
"CCCCc1ccc(C(=O)c2ccc(O)c(C(=O)Nc3cccc(C(F)(F)F)c3)c2)cc1 [BBAmF, reference compound]",0.8,0.2,–,< 0.4,<0.4,< 0.4,<0.4,> 50,NE (NE indicates that the drug was not effective at a concentration >50 micrograms/ml),> 50,> 50,> 50,–,NE (NE indicates that the drug was not effective at a concentration >50 micrograms/ml)

# Further lines, with some results ahead:
MIC (P. acnes 11828) [µg/mL],MIC (P. acnes 6922) [µg/mL],MIC (S. aureus; second Table 5 (Example 5)) [µg/mL],MIC (P. ging 381) [µg/mL],MIC P. ging 381 (P. ging 381) [micrograms/ml],MIC (Pg 53977) [µg/mL],MIC Pg 53977 (Pg 53977) [micrograms/ml],MIC (B. fragilis) [µg/mL],MIC B. fragilis (B. fragilis),MIC (S. species R) [µg/mL],MIC (S. aureus R2) [µg/mL],"MIC (S. aureus; Table 2, Gram Positive) [µg/mL]",SMILES,sensitivity of staphylococcus species R to the compounds (S. species R; statement in text referring to Table 5),MIC S. aureus (S. aureus; second Table 5 (Example 5))
0.4,0.2,3.1,< 0.1,<0.1,< 0.1,<0.1,3.1,3.1 micrograms/ml,1.6,1.6,–,O=C(Nc1cccc(C(F)(F)F)c1)c1cc(C(=O)c2cccc3ccccc23)ccc1O [NA1mF],highest effect,–
0.4,0.2,–,< 0.4,<0.4,< 0.4,<0.4,50,50 micrograms/ml,> 50,> 50,> 50,"O=C(c1ccc(-c2ccccc2)cc1)c1ccc(O)c(C(=O)Nc2cccc(C(F)(F)F)c2)c1 [BPAmF, reference compound]",–,NE (NE indicates that the drug was not effective at a concentration >50 micrograms/ml)
